Measurements reported in ChEMBL document CHEMBL1201862, “PubChem BioAssay data set” (2004).
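Where inhibition never reached the appropriate level, the endpoint shown equals the highest concentration tested. Otherwise, values were interpolated linearly from a five-concentration, 48-hour dose response in 96-well plates. GI50 is the concentration that inhibits growth by half.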 Active and inactive are the calls of the source. No stated cut-off is given here; in the data, active = GI50 up to about 1.1 µM and inactive = higher.

What was measured:
Assay in all cases: DTP human tumour cell line panel, 48 h
OVCAR-5 = system: OVCAR-5
PC-3 = system: PC-3
SK-MEL-28 = system: SK-MEL-28
A549 = system: A549
SK-MEL-5 = system: SK-MEL-5
HCT-116 = system: HCT-116
HL-60 = system: HL-60
SF-268 = system: SF-268
T47D = system: T47D
BT-549 = system: BT-549
MDA-MB-435 = system: MDA-MB-435
Hs-578T = system: Hs-578T
SR = system: SR
SK-MEL-2 = system: SK-MEL-2
NCI-H226 = system: NCI-H226
MDA-N = system: MDA-N

Compound	GI50 (OVCAR-5)	GI50 (PC-3)	GI50 (SK-MEL-28)	GI50 (A549)	GI50 (SK-MEL-5)	GI50 (HCT-116)	GI50 (HL-60)	GI50 (SF-268)	GI50 (T47D)	GI50 (BT-549)	GI50 (MDA-MB-435)	GI50 (Hs-578T)	GI50 (SR)	GI50 (SK-MEL-2)	GI50 (NCI-H226)	GI50 (MDA-N)
COc1cc2c(/C=C3/C(=O)N(C)c4ccc(O)cc43)c(Cl)[nH]c2cc1C	3.79 µM (inactive)	1.38 µM (inactive)	2.22 µM (inactive)	0.667 µM (active)	0.282 µM (active)	0.361 µM (active)	0.281 µM (active)	2.07 µM (inactive)	3.41 µM (inactive)	0.811 µM (active)	0.0284 µM (active)	0.269 µM (active)	0.133 µM (active)	0.641 µM (active)	0.516 µM (active)	
Cc1nc2ccc(F)cc2c(Cl)c1CCCl		44.4 µM (inactive)	40.3 µM (inactive)	42.3 µM (inactive)	22 µM (inactive)	26 µM (inactive)	16.1 µM (inactive)	37.1 µM (inactive)	38.6 µM (inactive)	36.9 µM (inactive)	26.9 µM (inactive)	43.9 µM (inactive)	19.9 µM (inactive)		54.1 µM (inactive)	
COC(=O)[C@@H](NC(=O)N(CCC#N)CCCN(C(=O)N[C@H](Cc1ccccc1)C(=O)OC)c1ccccc1)C(C)C	> 100 µM (inactive)	81.8 µM (inactive)	34.3 µM (inactive)	> 100 µM (inactive)	62.2 µM (inactive)	> 100 µM (inactive)		84.1 µM (inactive)	36.8 µM (inactive)	> 100 µM (inactive)	57.1 µM (inactive)	> 100 µM (inactive)		40.6 µM (inactive)	> 100 µM (inactive)	95.3 µM (inactive)
Cc1cccc2c(=O)c3c(O)cc(O)cc3n(C)c12	> 100 µM (inactive)	> 100 µM (inactive)	> 100 µM (inactive)	> 100 µM (inactive)	> 100 µM (inactive)	> 100 µM (inactive)	> 100 µM (inactive)	> 100 µM (inactive)		> 100 µM (inactive)	> 100 µM (inactive)	6.37 µM (inactive)	> 100 µM (inactive)	> 100 µM (inactive)	> 100 µM (inactive)	> 100 µM (inactive)
CC(C)(C)OC(=O)NC(Cc1ccccc1)C(=O)OCN1C(=O)C2C3C=CC(C2C1=O)C1C2C(=O)N(COC(=O)C(Cc4ccccc4)NC(=O)OC(C)(C)C)C(=O)C2C31 (stereo not given)	53.3 µM (inactive)	29.5 µM (inactive)	34.6 µM (inactive)	8.28 µM (inactive)	28 µM (inactive)	19.2 µM (inactive)	30.7 µM (inactive)	38.5 µM (inactive)	36.3 µM (inactive)	18.6 µM (inactive)	53.7 µM (inactive)	18.7 µM (inactive)	0.176 µM (active)	29.8 µM (inactive)	29.4 µM (inactive)	
COC(=O)[C@@H]1[C@@H](c2cccc(Cl)c2)[C@H](C(=O)OC)C2(C[C@@]1(C)O)NCCS2 (stereo not given in full)	> 100 µM (inactive)	31.4 µM (inactive)	77.4 µM (inactive)	55 µM (inactive)	44.9 µM (inactive)	42.5 µM (inactive)		> 100 µM (inactive)	29.6 µM (inactive)	> 100 µM (inactive)	52.5 µM (inactive)	> 100 µM (inactive)		16.6 µM (inactive)	> 100 µM (inactive)	86.1 µM (inactive)
O=C1N/N=C\Nc2ccc(cc2)S(=O)(=O)c2ccc(cc2)/N=C\NNC1=O	> 100 µM (inactive)	> 100 µM (inactive)	> 100 µM (inactive)	> 100 µM (inactive)	> 100 µM (inactive)	> 100 µM (inactive)	10.1 µM (inactive)	> 100 µM (inactive)	> 100 µM (inactive)	72.8 µM (inactive)	> 100 µM (inactive)	> 100 µM (inactive)		> 100 µM (inactive)	> 100 µM (inactive)	> 100 µM (inactive)
COc1cccc(-c2cccc(SC)n2)n1	29.2 µM (inactive)	38.6 µM (inactive)	29.6 µM (inactive)	23.8 µM (inactive)	20.5 µM (inactive)	28.4 µM (inactive)	12.1 µM (inactive)		18.2 µM (inactive)	31.3 µM (inactive)	26.4 µM (inactive)		18.1 µM (inactive)	36.3 µM (inactive)	15.8 µM (inactive)	29.6 µM (inactive)
CC(C)(C)OC(=O)N/N=C(/N)Cc1ccc(Cl)cc1	> 100 µM (inactive)	> 100 µM (inactive)	> 100 µM (inactive)	> 100 µM (inactive)	> 100 µM (inactive)	> 100 µM (inactive)		> 100 µM (inactive)	> 100 µM (inactive)	> 100 µM (inactive)	> 100 µM (inactive)	> 100 µM (inactive)	51.6 µM (inactive)	> 100 µM (inactive)	> 100 µM (inactive)	> 100 µM (inactive)
